# Laboratory results published in patent US20090221648A1, “COMPOSITIONS FOR TREATMENT OF COGNITIVE DISORDERS” (priority 2007, published 2009).
# Entries after “also recorded” stand apart in the source; their conditions may differ. Read-outs that look alike come from different tables or passages of the source.
# How the values were obtained:
# [1] = test system: Spontaneously Hypertensive rat (SHR) pups; conditions: from literature (Fox et al. 2002, 2005; Decker et al. 2008), cited from earlier work
# [2] = test system: Spontaneously Hypertensive rat (SHR) pups; assay: 5-trial inhibitory avoidance in SHR rat pups; assay type: in vivo; conditions: for Level of Efficacy in SHR 5-trial Inhibitory Avoidance Model: applicant's Examples 1 and 2
# Description: Methods: In this behavioral paradigm, hypothesized to test aspects of both attention and impulsivity, vehicle-treated Spontaneously Hypertensive rat (SHR) pups show an impaired ability to withhold a natural response to transfer from the light into a preferred dark chamber that is paired with a mild footshock. In this study, SHR pups at postnatal day 22-23 were dosed with either vehicle or atomoxetine (0.001, 0.01, 0.1, 1.0 and 6.0 mg/kg, s.c.) 30 min prior to being tested. They were then placed into the brightly illuminated compartment of a two compartment chamber (Hamilton Kinder, San Diego, Calif.) with a retractable door between the light and dark compartments opened. After animals transferred through the open door to the dark compartment, the door closed automatically and a 0.1 mA scrambled current was applied to a 31 bar stainless steel grid floor for one second. At this point, the pup was removed and returned to its home cage and littermates for a one minute inter trial interval, and the transfer latency was noted. The same pup was returned to the bright compartment, and the process repeated for five trials. Latency to enter the dark compartment was used to evaluate learning.
# Methods: In this behavioral paradigm, hypothesized to test aspects of both attention and impulsivity, vehicle-treated SHR rat pups show an impaired ability to withhold a natural response to transfer from the light into a preferred dark chamber that is paired with a mild footshock. In this study, SHR pups at postnatal day 21-25 were dosed with either vehicle or the alpha7 agonist, compound 1,2-methyl-5-[6-phenylpyridazin-3-yl]octahydropyrrolo[3,4-c]pyrrole, (0.01, 0.1, and 1.0 umol/kg, s.c.) 30 min prior to being tested. They were then placed into the brightly illuminated compartment of a two compartment chamber (Hamilton Kinder, San Diego, Calif.) with a retractable door between the light and dark compartments opened. After animals transferred through the open door to the dark compartment, the door closed automatically and a 0.1 mA scrambled current was applied to a 31 bar stainless steel grid floor for one second. At this point, the pup was removed and returned to its home cage and littermates for a one minute inter trial interval, and the transfer latency was noted. The same pup was returned to the bright compartment, and the process repeated for five trials. Latency to enter the dark compartment was used to evaluate learning. Methods for evaluating 2-methyl-5-[6-phenylpyridazin-3-yl]octahydropyrrolo[3,4-c]pyrrole also are described in Tietje, Karin R., et al., Preclinical Characterization of A-582941: A Novel α7 Neuronal Nicotinic Receptor Agonist with Broad Spectrum Cognition-Enhancing Properties, CNS Neuroscience & Therapeutics 14 (2008) 65-82 (2008).
# The 5-trial inhibitory avoidance assay in spontaneously hypertensive (SHR) rat pups has been proposed as a model with predictive validity for compounds showing efficacy in attention disorders such as ADHD.
# rats = rats performing an operant visual signal detection task; Rezvani et al. 2008; cited from earlier work
smiles,measurement,setting,value
Cc1cc([C@@H]2CCCN2C)on1 [ABT-418],Level of Efficacy in SHR 5-trial Inhibitory Avoidance Model,[1],full efficacy and Full
C[C@@H]1CCCN1CCc1cc2cc(-c3ccc(C#N)cc3)ccc2o1 [ABT-239],Level of Efficacy in SHR 5-trial Inhibitory Avoidance Model,[1],full efficacy and Full
"COC(=O)C(c1ccccc1)C1CCCCN1 (stereo not drawn) [Methylphenidate, methylphenidate]",Level of Efficacy in SHR 5-trial Inhibitory Avoidance Model,[1],Full
same,Level of Efficacy in SHR 5-trial Inhibitory Avoidance Model,[1]; listed as methylphenidate,fully efficacious
"CN1CC2CN(c3ccc(-c4ccccc4)nn3)CC2C1 (stereo not drawn) [Compound 1, 2-methyl-5-[6-phenylpyridazin-3-yl]octahydropyrrolo[3,4-c]pyrrole]",effect on transfer latency,"[2]; SHR pups postnatal day 21-25, 0.01, 0.1 and 1.0 umol/kg s.c., 30 min prior to testing, Mann Whitney p<0.05, FIG. 2","significant, dose dependent effect"
same,transfer latency,"[2]; SHR pups postnatal day 21-25, dose of 1 μmol/kg s.c., FIG. 2",significantly increasing transfer latency
same,Level of Efficacy in SHR 5-trial Inhibitory Avoidance Model,[2],full efficacy and Full
Cl.O=C(N[C@@H]1CN2CCC1CC2)c1n[nH]c2ccccc12 [R3487/MEM3454],visual sustained attention,rats,improve visual sustained attention
Cc1ncccc1OC[C@@H]1CCCN1 [ABT-089],Level of Efficacy in SHR 5-trial Inhibitory Avoidance Model,[1],full efficacy and Full
"CNCC[C@@H](Oc1ccccc1C)c1ccccc1 [Atomoxetine, atomoxetine]",transfer latency compared to vehicle treated animals,"[2]; SHR pups postnatal day 22-23, 0.001, 0.01, 0.1, 1.0 and 6.0 mg/kg s.c., 30 min prior to testing, FIG. 1",did not alter transfer latency
same,Level of Efficacy in SHR 5-trial Inhibitory Avoidance Model,[2],None
same,Level of Efficacy in SHR 5-trial Inhibitory Avoidance Model,[2]; listed as atomoxetine,did not show efficacy; also recorded: not efficacious
